The subject of one test is K562. Briefly: MTT cell viability assay, K562 cells. The test is classed as cell-based. As to conditions: Homo sapiens, 48 h drug exposure. How it is done: K562 [American Type Culture Collection (ATCC) reference number CCL-243]. This a human cancer cell line derived from the bone marrow of a person with CML.
(§1) Cell viability was assayed by measuring the mitochondrial reduction of the tetrazolium salt 3-(4,5-methyltiazol-2yl)-2,5diphenyl-tetrazolium bromide] (MTT) (Applichen; A2231,0010) [Mosmann T. J Immunol Methods. 1983 16;65(1-2):55-63 (ref. 36); Chuan Y-C et al 2010. Oncogene. 29 (10), 1531-1542 (ref. 37)]. Cells were seeded in 96-well plates in medium (either RPMI, DMEM or McCoys depending on the recommendations from the ATCC) supplemented with 10% FBS (Lonza Cat. N°: 14-502F), 2mM L-Glut (Lonza Cat. N°: BE17-605E) and 100U/ml PEST (Lonza Cat. N°: DE17-605E) at a cell density of 1000-5000 cells/well (96 well plate). Cells were seeded at a density according to their exponential growth phase (normally 1000 to 5000/well). The cells were cultured at 37 °C in the dark in air containing 5% CO2. After 24h either vehicle (0.05% DMSO) or drug were added to culture medium at the indicated concentrations (10 to 0,01microM). After another 48 h, MTT (0.3 mg/ml) was added to cells, followed by incubation for 2-4h at 37 °C in the dark. The medium was then removed and the precipitated formazan was solubilized by the addition of DMSO (200 µL).
(§2) The optical density was measured at 595 nm with the iMark Microplate Reader (BioRad, USA). Data was expressed as percent growth above the level in controls and the results in figures were plotted as means ± SEM of each test point from 3 replicates.
(§3) Statistical analysis. The concentration of drug that provokes 50% reduction of cell viability (IC50) was determined by using non-linear regression analysis and data were fitted to a log concentration vs normalized response curve in GraphPad software v5 (San Diego, CA).
(In general: Tetrazolium dyes change colour on reduction, which living cells bring about.)

In the next test the test system is MDA-MB-231. Briefly: MTT cell viability assay, MDA-MB-231 cells. Type of test: cell-based, human. Particulars: Homo sapiens, 48 h drug exposure. Here is the method: MDA-MB-231 [American Type Culture Collection (ATCC) reference number HTB-26]. This a human breast cancer cell line derived from a metastatic site from a person.
as §1, §2, §3

For the next test, the system named is HEL 92.1.7. Description: MTT cell viability assay, HEL cells. Type of test: cell-based. Particulars: Homo sapiens, 48 h drug exposure. How it is done: HEL 92.1.7 [American Type Culture Collection (ATCC) reference number TIB-180]. This a human cancer cell line derived from the bone marrow of a person with erythroleukemia, which is a form of AML.
as §1, §2, §3

A further test concerns PANC-1. Briefly: MTT cell viability assay, PANC-1 cells. Type of test: cell-based. Particulars: Homo sapiens, 48 h drug exposure. Here is the method: PANC-1 [American Type Culture Collection (ATCC) reference number CRL-1469]. This a human cancer cell line derived from the pancreas of a person.
as §1, §2, §3

In the next test the test system is MCF-7. Description: MTT cell viability assay, MCF-7 cells. The test is classed as cell-based. Particulars: Homo sapiens, MCF7, 48 h drug exposure. How it is done:
as §1, §2, §3

For a further test, the system named is DU-145. Description: MTT cell viability assay, DU-145 cells. The test is classed as cell-based. As to conditions: Homo sapiens, 48 h drug exposure. Here is the method:
DU-145 [American Type Culture Collection (ATCC) reference number HTB-81]. This a human prostate cancer cell line derived from a metastatic site (brain) of a person.
as §1, §2, §3

Our source for the IC50 values is EP4177246A1, “FUSED OXAZEPINES AS INHIBITORS OF PEROXIREDOXINS” (Centro Atlántico del Medicamento, SA, priority 2021, dated 2023).

A word on the IC50: it is the concentration that gives 50% inhibition.

In the case of `O=C1C2=C(C(=O)c3ccccc31)N(c1ccccc1)Cc1ccccc1O2` [Compound 1, 12-phenyl-12,13-dihydrobenzo[f]naphtho[2,3-b][1,4]oxazepine-6,11-dione], the IC50 with K562 turned out to be 0.98 µM; in the test with MDA-MB-231 it was 1.59 µM; in the test with HEL 92.1.7, 0.45 µM.

With `N#Cc1cccc(N2Cc3cc(Cl)ccc3OC3=C2C(=O)c2c(O)ccc(O)c2C3=O)c1` [Compound 43], the concentration for half-maximal inhibition (IC50) amounted to 0.76 µM with K562, 0.74 µM in the test on PANC-1, 0.81 µM in the test with MDA-MB-231 and 1.3 µM in the test with MCF-7.

For the molecule `NC(=O)c1cccc(N2Cc3cc(Cl)ccc3OC3=C2C(=O)c2c(O)ccc(O)c2C3=O)c1` [Compound 44], the IC50 with K562 amounted to 0.06 µM; in the test with PANC-1, 0.32 µM; in the test on MDA-MB-231, 0.73 µM; in the test with MCF-7, 0.97 µM.

On to `CN(CCO)c1ccc(N2Cc3ccccc3OC3=C2C(=O)c2ccccc2C3=O)cn1` [Compound 49], for which the IC50 with PANC-1 turned out to be 3.43 µM; in the test on MDA-MB-231, 2.63 µM; in the test on HEL 92.1.7, 1.22 µM.

As to `NC(=O)c1ccc(N2Cc3cc(F)ccc3OC3=C2C(=O)c2c(O)ccc(O)c2C3=O)cc1` [Compound 55], the IC50 was found to be 0.33 µM with K562, 0.89 µM in the test on PANC-1, 3.35 µM in the test with MDA-MB-231 and 3.45 µM with MCF-7.

Consider `CCOC(=O)c1ccc2c(c1)CN(c1ccccc1)C1=C(O2)C(=O)c2c(O)ccc(O)c2C1=O` [Compound 64], for which the half-inhibitory concentration (IC50) came to 1.3 µM in the test with K562 and 5.89 µM in the test with HEL 92.1.7.

Turning to `COc1ccc(O)c2c1C(=O)C1=C(C2=O)N(c2cccc(C#N)c2)Cc2ccccc2O1` [Compound 66], the IC50 with MDA-MB-231 is 1.21 µM; in the test on MCF-7, 2.34 µM; in the test with HEL 92.1.7 it was 0.05 µM.

`COc1ccc(O)c2c1C(=O)C1=C(Oc3ccccc3CN1c1ccccc1)C2=O` [Compound 84]: the IC50 in the test with MDA-MB-231 turned out to be 1.18 µM; in the test on MCF-7 it was 3.98 µM; in the test on HEL 92.1.7 it was 3.71 µM.

For the molecule `COc1ccc(OC)c2c1C(=O)C1=C(C2=O)N(c2cccnc2)Cc2ccccc2O1` [Compound 85, 7,10-dimethoxy-12-(pyridin-3-yl)-12,13-dihydrobenzo[f]naphtho[2,3-b][1,4]oxazepine-6,11-dione], the IC50 with K562 amounted to 0.38 µM; with PANC-1, 1.78 µM; with MDA-MB-231, 1.03 µM; in the test with MCF-7 it was 2.57 µM; in the test on HEL 92.1.7, 0.33 µM.

Turning to `COc1ccc(OC)c2c1C(=O)C1=C(C2=O)N(c2ccc(N3CCOCC3)nc2)Cc2ccccc2O1` [Compound 86], the IC50 in the test on PANC-1 came out at 3.89 µM; in the test with MDA-MB-231 it was 1.28 µM; in the test with HEL 92.1.7, 0.59 µM.

As to `CC(=O)Oc1ccc(OC(C)=O)c2c1C(=O)C1=C(C2=O)N(c2ccccc2)Cc2ccccc2O1` [Compound 87, 6,11-dioxo-12-phenyl-6,11,12,13-tetrahydrobenzo[f]naphtho[2,3-b][1,4]oxazepine-7,10-diyl diacetate], the results for the concentration for half-maximal inhibition (IC50) with MDA-MB-231 and with HEL 92.1.7 were 0.15 µM and 0.08 µM, respectively.

`CC(=O)Oc1ccc(OC(C)=O)c2c1C(=O)C1=C(C2=O)N(c2cccc(C(N)=O)c2)Cc2ccccc2O1` [Compound 92, 12-(3-carbamoylphenyl)-6,11-dioxo-6,11,12,13-tetrahydrobenzo[f]naphtho[2,3-b][1,4] oxazepine-7,10-diyl diacetate]: the concentration for half-maximal inhibition (IC50) came to 0.15 µM with MDA-MB-231 and 0.12 µM in the test with HEL 92.1.7.

For `COC(=O)CNC(=O)c1ccc(N2Cc3ccccc3OC3=C2C(=O)c2c(O)ccc(O)c2C3=O)cc1` [Compound 102, methyl (4-(7,10-dihydroxy-6,11-dioxo-6,11-dihydrobenzo[f]naphtho[2,3-b][1,4]oxazepin-12(13H)-yl)benzoyl)glycinate], the IC50 stood at 1 µM with DU-145, 0.42 µM with K562 and 0.17 µM with MDA-MB-231.

For the molecule `CN1CCN(c2ccc(N3Cc4ccccc4OC4=C3C(=O)c3cccc(O)c3C4=O)cn2)CC1` [Compound 106], the half-maximal inhibitory concentration (IC50) is 0.71 µM in the test on PANC-1 and 0.74 µM in the test with MDA-MB-231.
